In US20240391903A1, “AUTOTAXIN-INHIBITORS” (UNIVERSITAET MUENSTER, priority 2021, published 2024):
“Also recorded” adds a separate entry of the source.

Experiments:
[1] = Pharmacokinetic evaluation in mouse plasma after oral gavage; type: in vivo; details: 30 mg/kg oral, based on mean concentrations
Procedure: MJK2134025 and GLPG 1690 were each administered as wet milled aqueous micro-suspensions at a concentration of 3 mg/g in 1% carboxymethyl cellulose and 0.5% Tween 80. Dosing of the formulations was performed at 10.0 g/kg body weight, corresponding to 30 mg/kg body weight. The food intake was measured (FIG. 19).
Prior blood collection, minicollect K3 EDTA vials were opened at room temperature to dry the EDTA in order to avoid blood dilution by the fluid content. Following oral gavage of the test formulations tail vein blood samples were taken at 15 min, 30 min, 1 h, 2 h, 4 h and 8 h. Samples were collected in dried minicollect K3 EDTA plasma vials. The blood samples (20-25 μl) were mixed and immediately cooled to 4° C. Subsequently, the samples were centrifuged at 3000 g for 5-10 min. Supernatants were collected in Eppendorf tubes and frozen and stored at −80° C. until further processing.
MJK2134025 and GLPG1690 were quantified in mouse plasma samples by LC-MS. Frozen mouse plasma samples were thawed on ice. Samples were then precipitated at a ratio of 1:10 (v:v) with 5 ng mL^−1 17:0 LPA in methanol (as an internal standard) in a 1.5 mL Eppendorf tube with microinsert (clear glass, flat bottom, 0.2 mL, 31×6 mm, LABSOLUTE, Germany). The Eppendorf tubes were mixed for 2 minutes at 4° C. and 1600 rpm in a Thermomixer C (Eppendorf, Germany). The Eppendorf tubes were centrifuged at 4° C. and 16.1 rcf for 2 minutes. The supernatant was transferred to HPLC vials for UHPLC-HRMS measurements as described in the following section. Calibration standards of MJK2134025 and GLPG1690 were prepared by adding the reference substances of MJK2134025 and GLPG1690 to blank samples (mouse plasma without substance). The calibration curve was generated at 7 concentrations and with a weighting of 1/×. The following concentrations were used for the stock solutions: 0.1, 0.5, 1, 2.5, 10, 50 and 200 μg·mL^−1 in methanol. To prepare the 200 μg·mL^−1 stock solution, 0.04 mL of 1 mg·mL^−1 MJK2134025 and 0.04 mL of 1 mg·mL^−1 GLPG1690 were mixed with 0.12 mL methanol. These stock solutions (5 μL each) were added to the blank plasma (45 μL). The sample was then mixed for 2 minutes at 4° C. and 1600 rpm in Thermomixer C (Eppendorf, Germany). Subsequent sample processing was the same as for the samples quantified. All quantifications should be considered as preliminary estimates as stable isotope-labeled reference substances were not available and individual matrix effects cannot be excluded.
All processed plasma samples were analyzed with a Vanquish Horizon UHPLC system (Thermo Fisher Scientific, Bremen, Germany) coupled to a Thermo Scientific QExactive HF-X Orbitrap mass spectrometer (Thermo Fisher Scientific, Bremen, Germany) using a UHPLC column (Luna R Omega 1.6 μm C18 100 Å, 100*2.1 mm). A solution of 5 mM ammonium formate in water containing 0.1% formic acid (eluent A) and a 5 mM solution of ammonium formate in acetonitrile: H2O (95:5, % v:v) containing 0.1% formic acid (eluent B) were used as the mobile phase. A flow rate of 0.3 mL/min was used under the following gradient conditions: 30% eluent B for 1 minute, then linear increase to 98% in 14 minutes, holding 98% of eluent B for 5 minutes, and then decreasing to 30% in 0.5 minutes, followed by isocratic holding for 3.5 minutes. The column temperature was maintained at 25° C. Samples were kept at 4° C., and 8 μL was injected into the UHPLC-MS. The QExactive HF-X Orbitrap was acquired at a resolution of 60000 at full half-width and in both positive and negative modes. The following HESI source parameters were used: capillary voltage of 3.8 kV (negative mode) and 3.5 kV (positive mode), capillary temperature of 320° C., funnel RF level 40, sheath gas pressure 49 (N2>95%), auxiliary gas 10 (N2>95%), auxiliary gas heater temperature 300° C. The automatic gain control (AGC) was set to 10E+6. A scan range of m/z 400 to 600 was selected, and the injection time was set to 200 ms. […]

[2] = molecular target: T1, ATX (Homo sapiens, UniProt Q13822); assay: ATX activity assay (Autotaxin inhibitor test kit, fluorescent ATX substrate); type: biochemical; details: for IC50: read-out: IC50 (nM) ATX inhibition
T1 construct: purchased
Procedure: (§1) A solution of 10 mM of the inhibitor to test in DMSO was received. Adding 40.5 μL of this solution to 959.5 μL DMSO gave a concentration of 405 μM. […] For a threefold dilution series 800 μL of 18% DMSO in water were dispensed in twelve 1.5 mL test tubes. 400 μL of the 75.9 μM inhibitor solution were added to the first vial and the solution was vortexed. For every dilution step 400 μL of the corresponding previous dilution step were transferred and mixed by vortexing. The obtained concentrations were 7594 nM, 2531 nM, 844 nM, 281 nM, 94 nM, 31 nM, 10 nM, 3.47 nM, 1.16 nM, 0.39 nM, 0.13 nM, 0.043 nM, 0.014 nM. The eight concentration steps from 31 nM to 0.014 nM were used in the assay.
The assay was performed according to the attached manual of the assay kit. In brief 80 μL reaction buffer containing ATX, 10 μL of the dilution series from the inhibitor and 10 μL fluorescent ATX substrate solution were mixed in a well of a 96 well plate. Cleavage of the substrate by ATX causes increase in fluorescence (excitation 485 nm, emission 528 nm), which is measured by a plate reader in 1 min intervals. The increase of fluorescence between 5 min and 15 min was used to calculate the reaction rate.
The autotaxin reaction was performed in four parallel replicates for the target inhibitor and two replicates for the positive control BrP-LPA. The slope of the increase in fluorescence was calculated by Excel using the “slope” function. The IC50 was calculated by GraphPad Prism using the nolinear regression (curve fit): “log (inhibitor) vs. response with variable slope (four parameters)”.
The autotaxin reaction was performed in three parallel replicates for the target inhibitors MJK2234001 and MJK2234002 and two replicates for MJK2134025 and two replicates for the positive control BrP-LPA. All ATX-tests were performed using the protocol as described above with minor modifications. Those modifications refer to the dilution principle:
as §1, with “The obtained concentrations were 7594 nM, 2531 nM, 844 nM, 281 nM, 94 nM, 31 nM, 10 nM, 3.47 nM, 1.16 nM, 0.39 nM, 0.13 nM, 0.043 nM, 0.014 nM.” left out, “300” for “31”, “0.14” for “0.014”, “assay. During the assay, the final concentration of the inhibitor during the reaction was 1/10th of the added inhibitor solution.” for “assay.”

[3] = Cytotoxicity testing in HeLa cells (methylene blue); type: cell-based; details: human, HeLa cells (DSM ACC 57), 72 hours incubation
Procedure: Hela cells (DSM ACC 57) were grown in RPMI 1640 medium supplemented with 10 mL·L^−1 ultraglutamine 1 (CAMBREX 17-605E/U1), 550 μL·L^−1 gentamicin sulfate (50 mg·mL^−1, CAMBREX 17-518Z) and 10% heat inactivated fetal bovine serum (GIBCO Life Technologies 10270-106) at 37° C. in a 5% CO2 atmosphere in high density polyethylene flasks (NUNC 156340). Cells were pre-incubated for 48 hours in the absence of test substances. Subsequently, Hela cells were incubated with serial dilutions of the test substances in 96 well microplates for 72 hours at 37° C. in a humidified atmosphere and 5% CO2. After incubation, the cytolytic effect of compounds was analyzed relative to the negative control (DMSO) using a colorimetric assay (methylene blue). The adherent Hela cells were fixed by glutaraldehyde (MERCK 1.04239.0250) and stained with a 0.05% solution of methylene blue (SERVA 29198) for 15 min. After gentle rinsing, the stain was eluted through addition of 0.2 mL hydrochloric acid (0.33 M) to each well. The absorptions were measured at 660 nm in a SUNRISE microplate reader (TECAN). Four replicates were assayed for each substance. […] All calculations of CC50 values were performed with the software Magellan (TECAN).

[4] = Microsomal stability assay; type: in vitro ADME; details: human liver microsomes
Procedure: A microsomal stability assay was performed according to an internal standard procedure. Positive control compound diclofenac and three test items were freshly prepared as sub-dilutions in phosphate buffer (100 mM, pH 7.4) at concentrations of 200 μM and 20 μM, respectively. All incubations were conducted in triplicate in glass screw neck vials (1.5 mL, flat bottom, Macherey-Nagel, Düren, Germany) on a Thermomixer C (Eppendorf, Germany) at 37° C. and 1500 rpm. The incubation mixtures contained 270 μL human liver microsomes (HLM, 1.1 mg·mL^−1, UltraPool HLM 150, Corning B.V. Life Science, Amsterdam, the Netherlands), 270 μL NADP regeneration mix (1 mM NADP, 5 mM glucose-6-phosphate, 5 units·mL^−1 glucose-6-phosphate dehydrogenase and 5 mM MgCl2) and 30 μL phosphate buffer to reach a total volume of 570 μL. Negative controls were performed with heat inactivated (80° C., 30 min) HLM solution. Reactions were initiated by addition of diclofenac or the test item solution (30 μL). Aliquots of 100 μL were taken at 1, 15, 30, 60, and 90 minutes and immediately processed with 100 μL acetonitrile at 4° C. to terminate the reactions, and shaken for 2 minutes at 4° C. with 1600 rpm. The mixed samples were further transferred to 15 mm glass inserts (0.2 mL/6×31 mm, Macherey-Nagel, Düren, Germany) fitted in glass screw neck vials, and centrifuged for 15 min at 4° C. with 4000 rpm. The supernatants were withdrawn and subjected to high resolution mass spectrometry analysis without further treatment.
Samples were analyzed using a Vanquish Horizon UHPLC system (Thermo Fisher Scientific, Bremen, Germany) coupled to a Thermo Scientific QExactive HF-X Orbitrap mass spectrometer (Thermo Fisher Scientific, Bremen, Germany) using a UPLC column (ACQUITY HSS T3, Waters, 1.8 μm particle size, 2.1×50 mm dimensions). The column temperature was maintained at 25° C., and the samples were kept at 4° C. […]
Microsomal stability was determined in analogy to the method as described above, but as single determinations (FIG. 18).

[5] = mouse model of stroke; cited from earlier work

SMILES	AUC [1] [µg·h/mL]	Cmax [1] [ng/mL]	Tmax [1] [h]	IC50 [2] [nM]	ATX-inhibitory activity (comparison in words) [2]	CC50 at 72 h [3] [nM]	microsomal stability / metabolism (in words) [4]	infarct size and stroke-related motor deficits [5]
CCc1nc2c(C)cc(N3CCN(CC(=O)N4CC(O)C4)CC3)cn2c1N(C)c1nc(-c2ccc(F)cc2)c(C#N)s1 [GLPG1690, reference compound]	119	35200	1	–	–	–	–	–
O=C(CSc1ccc2nn[nH]c2c1)N1CCN(C(=O)OCc2cc(C(F)(F)F)cc(C(F)(F)F)c2)CC1 [MJK2234001, 3,5-bis(trifluoromethyl)benzyl 4-(2-((1H-benzo[d][1,2,3]triazol-6-yl)thio)acetyl)piperazine-1-carboxylate]	–	–	–	4	–	6200	metabolized at a comparable speed as the experimental drug GLPG 1690	–
O=C(CCN1CCN(C(=O)OCc2cc(Cl)cc(Cl)c2)CC1)c1ccc2[nH]c(=O)oc2c1 [PF-8380]	–	–	–	–	–	–	–	significantly reduced

Continued, in another order:

AUC [1] [µg·h/mL]	Cmax [1] [ng/mL]	Tmax [1] [h]	IC50 [2] [nM]	SMILES	ATX-inhibitory activity (comparison in words) [2]	CC50 at 72 h [3] [nM]	microsomal stability / metabolism (in words) [4]	infarct size and stroke-related motor deficits [5]
303	56400	2	1.8	O=C(OCc1cc(C(F)(F)F)cc(C(F)(F)F)c1)N1CCN(CCS(=O)(=O)c2ccc3nn[nH]c3c2)CC1 [MJK2134025, 3,5-bis(trifluoromethyl)benzyl 4-(2-((1H-benzo[d][1,2,3]triazol-6-yl)sulfonyl)ethyl)piperazine-1-carboxylate]	almost equal ATX-inhibitory activity; also recorded: comparable ATX-inhibtion as PF8380	45100	almost equally metabolically stable and superior to all other compounds tested; also recorded: favorable decay time course	–
–	–	–	2	O=C(CS(=O)(=O)c1ccc2nn[nH]c2c1)N1CCN(C(=O)OCc2cc(C(F)(F)F)cc(C(F)(F)F)c2)CC1 [MJK2234002, 3,5-bis(trifluoromethyl)benzyl 4-(2-((1H-benzo[d][1,2,3]triazol-6-yl)sulfonyl)acetyl)piperazine-1-carboxylate]	almost equal ATX-inhibitory activity	67800	almost equally metabolically stable and superior to all other compounds tested	–
